Test results as given in PMC5493921 (Royal Society Open Science, 2017).

Legend:
[1] = molecular target: T1, ZfGBA1 (Zygaena filipendulae, UniProt A0A1W1EGM7); format: cell-based
T1 construct: expressed with and without (*) predicted native N-terminal signal peptide; retained in cells

[2] = molecular target: T2, ZfBGD2 (Zygaena filipendulae, UniProt A0A1W1EGN8); format: cell-based
T2 construct: expressed with and without (*) predicted native N-terminal signal peptide; retained in cells
T2 sequence (A0A1W1EGN8 19-524 limits assumed): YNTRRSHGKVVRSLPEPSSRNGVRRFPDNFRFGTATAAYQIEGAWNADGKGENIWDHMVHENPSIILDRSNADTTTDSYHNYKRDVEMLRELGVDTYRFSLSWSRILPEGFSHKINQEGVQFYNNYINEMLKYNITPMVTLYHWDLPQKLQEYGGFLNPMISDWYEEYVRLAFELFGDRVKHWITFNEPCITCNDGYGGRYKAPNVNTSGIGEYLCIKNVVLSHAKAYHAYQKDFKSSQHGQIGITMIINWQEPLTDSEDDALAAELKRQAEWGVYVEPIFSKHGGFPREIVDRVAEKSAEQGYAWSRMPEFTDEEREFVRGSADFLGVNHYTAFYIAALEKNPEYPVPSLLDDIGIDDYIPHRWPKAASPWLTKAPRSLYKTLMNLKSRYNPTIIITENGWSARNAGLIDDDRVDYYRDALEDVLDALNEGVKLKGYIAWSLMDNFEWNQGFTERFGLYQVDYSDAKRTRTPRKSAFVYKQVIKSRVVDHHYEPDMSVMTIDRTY

T1 sequence (A0A1W1EGM7 entry or part of it): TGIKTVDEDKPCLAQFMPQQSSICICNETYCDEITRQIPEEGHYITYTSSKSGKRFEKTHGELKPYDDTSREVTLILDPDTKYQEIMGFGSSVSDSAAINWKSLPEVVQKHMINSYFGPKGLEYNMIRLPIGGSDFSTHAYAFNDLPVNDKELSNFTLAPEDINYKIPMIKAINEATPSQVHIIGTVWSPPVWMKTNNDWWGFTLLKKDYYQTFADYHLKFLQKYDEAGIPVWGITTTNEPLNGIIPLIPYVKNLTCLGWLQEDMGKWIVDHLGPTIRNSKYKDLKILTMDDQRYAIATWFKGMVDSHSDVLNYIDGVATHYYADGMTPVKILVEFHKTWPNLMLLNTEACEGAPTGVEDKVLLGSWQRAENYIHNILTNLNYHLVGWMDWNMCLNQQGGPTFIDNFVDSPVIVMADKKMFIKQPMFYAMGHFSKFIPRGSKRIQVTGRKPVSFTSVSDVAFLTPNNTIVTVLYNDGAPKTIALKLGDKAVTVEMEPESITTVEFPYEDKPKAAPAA

| SMILES | HCN release from re-suspended Sf9 cells, Feigl-Anger paper and colorimetric [1] | HCN release from re-suspended Sf9 cells, Feigl-Anger paper and colorimetric [2] |
| --- | --- | --- |
| CC(C)(C#N)O[C@@H]1O[C@H](CO)[C@@H](O)[C@H](O)[C@H]1O [lin, linamarin] | ZfBGD2 and ZfGBA1 also hydrolysed linamarin and lotaustralin | ZfBGD2 and ZfGBA1 also hydrolysed linamarin and lotaustralin |
| CC[C@](C)(C#N)O[C@@H]1O[C@H](CO)[C@@H](O)[C@H](O)[C@H]1O [lot, lotaustralin] | ZfBGD2 and ZfGBA1 also hydrolysed linamarin and lotaustralin | ZfBGD2 and ZfGBA1 also hydrolysed linamarin and lotaustralin |
